Data as given in BindingDB's records for doi:10.1021/acschembio.6b00357 (Uppsala University, 2016).

Key:
Assay in all cases: Radioligand Binding Assay
Adenosine receptor A1 = target: T1, Adenosine receptor A1 (Homo sapiens, UniProt P30542)
T1 sequence (P30542 whole entry): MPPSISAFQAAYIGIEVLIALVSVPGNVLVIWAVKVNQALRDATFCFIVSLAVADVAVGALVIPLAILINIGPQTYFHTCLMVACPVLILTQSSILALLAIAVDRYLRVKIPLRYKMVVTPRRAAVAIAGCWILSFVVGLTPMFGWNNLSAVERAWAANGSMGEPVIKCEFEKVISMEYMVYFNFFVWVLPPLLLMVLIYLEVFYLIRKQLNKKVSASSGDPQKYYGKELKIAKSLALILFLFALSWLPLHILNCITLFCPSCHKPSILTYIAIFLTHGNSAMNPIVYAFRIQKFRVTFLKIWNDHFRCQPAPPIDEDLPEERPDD
Method: (§1) Nonspecific binding was determined using adenosine-′-Nethyluronamideat 10 μM concentration.

Adenosine receptor A2a = Adenosine receptor A2a (Homo sapiens, UniProt P29274)
Method: as §1

Adenosine receptor A3 = target: T2, Adenosine receptor A3 (Homo sapiens, UniProt P0DMS8)
T2 sequence (P0DMS8 whole entry): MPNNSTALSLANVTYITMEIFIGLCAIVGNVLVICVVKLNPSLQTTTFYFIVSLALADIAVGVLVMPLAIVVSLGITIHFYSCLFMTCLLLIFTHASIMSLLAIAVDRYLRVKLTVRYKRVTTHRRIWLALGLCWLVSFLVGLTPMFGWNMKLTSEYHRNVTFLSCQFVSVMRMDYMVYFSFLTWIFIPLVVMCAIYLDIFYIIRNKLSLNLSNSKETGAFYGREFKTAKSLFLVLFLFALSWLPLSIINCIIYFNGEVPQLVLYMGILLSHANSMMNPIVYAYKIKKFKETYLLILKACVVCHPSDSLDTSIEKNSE
Method: as §1

Adenosine receptor A2a, sequence (P29274 whole entry): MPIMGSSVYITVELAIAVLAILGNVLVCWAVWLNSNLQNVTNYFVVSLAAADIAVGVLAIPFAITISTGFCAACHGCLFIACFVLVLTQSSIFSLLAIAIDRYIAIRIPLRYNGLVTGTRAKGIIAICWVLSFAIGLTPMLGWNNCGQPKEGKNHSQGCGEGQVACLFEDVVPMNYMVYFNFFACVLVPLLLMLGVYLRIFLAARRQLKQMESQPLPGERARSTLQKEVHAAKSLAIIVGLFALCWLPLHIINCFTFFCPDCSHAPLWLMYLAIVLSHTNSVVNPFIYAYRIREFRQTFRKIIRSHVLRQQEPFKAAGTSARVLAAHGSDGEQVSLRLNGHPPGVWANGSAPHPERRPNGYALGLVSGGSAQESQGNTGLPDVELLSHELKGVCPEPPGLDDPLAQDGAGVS

Row | Ki (Adenosine receptor A1) [nM] | Ki (Adenosine receptor A3) [nM] | Compound | Ki (Adenosine receptor A2a) [nM]
1 | 359 | 557 | Nc1ncn([C@@H]2O[C@H](CO)[C@@H](O)[C@H]2O)c(=O)c1Cl [Adenosine receptor agonist, 14] | 
2 | 84 | 583 | Nc1ccnc2c1ncn2[C@@H]1O[C@H](CO)[C@@H](O)[C@H]1O [1-DEAZA-ADENOSINE] | 645
3 |  | 8020 | Cc1cn([C@@H]2O[C@H](CO)[C@@H](O)[C@H]2O)c(=O)nc1N [Adenosine receptor agonist, 13] | 

Continued, molecule first:

Row | Compound | Ki (Adenosine receptor A1) [nM] | Ki (Adenosine receptor A3) [nM] | Ki (Adenosine receptor A2a) [nM]
4 | Nc1nc(=O)[nH]c2c1ncn2[C@@H]1O[C@H](CO)[C@@H](O)[C@H]1O [Adenosine receptor agonist, 9] | 467 | 348 | 495
5 | Nc1nccc2c1ncn2[C@@H]1O[C@H](CO)[C@@H](O)[C@H]1O [CAS_6736-58-9] | 461 |  | 
6 | Nc1cccc2c1ncn2[C@@H]1O[C@H](CO)[C@@H](O)[C@H]1O [Adenosine receptor agonist, 7] |  | 823 | 
